Experimental data reported in ChEMBL document CHEMBL4017469, “First insight into structure-activity relationships of selective meprin β inhibitors” (Bioorg Med Chem Lett, 2017).
Each block holds one compound with its values, some of them ahead of it.

Columns and labels:
Meprin A subunit beta [1] = biological target: T1, Meprin A subunit beta (Homo sapiens, UniProt Q16820); assay: Inhibition of recombinant human meprin beta expressed in baculovirus infected Sf9 insect cells using (MCA)-EDEDED-(K-epsilon-dnp) as substrate by fluorescence assay
T1 sequence (Q16820 whole entry): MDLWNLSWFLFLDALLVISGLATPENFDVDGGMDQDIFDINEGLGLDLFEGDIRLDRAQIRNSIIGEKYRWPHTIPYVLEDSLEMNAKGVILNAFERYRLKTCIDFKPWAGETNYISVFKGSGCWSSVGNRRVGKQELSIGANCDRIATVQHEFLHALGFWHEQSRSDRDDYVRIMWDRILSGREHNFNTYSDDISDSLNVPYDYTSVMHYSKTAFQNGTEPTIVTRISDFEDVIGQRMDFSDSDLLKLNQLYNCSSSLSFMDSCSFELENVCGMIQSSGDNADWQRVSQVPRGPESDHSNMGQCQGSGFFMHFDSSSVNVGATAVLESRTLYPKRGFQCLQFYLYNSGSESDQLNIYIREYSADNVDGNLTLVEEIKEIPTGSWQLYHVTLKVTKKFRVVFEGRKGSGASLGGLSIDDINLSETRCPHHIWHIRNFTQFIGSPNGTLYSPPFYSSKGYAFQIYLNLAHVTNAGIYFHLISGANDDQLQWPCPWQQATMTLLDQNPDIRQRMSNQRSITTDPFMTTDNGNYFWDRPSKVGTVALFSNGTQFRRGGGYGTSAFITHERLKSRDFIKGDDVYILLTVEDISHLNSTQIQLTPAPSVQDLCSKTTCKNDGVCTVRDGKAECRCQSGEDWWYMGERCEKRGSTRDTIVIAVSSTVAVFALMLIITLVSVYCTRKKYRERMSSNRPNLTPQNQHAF

Meprin A subunit beta [2] = biological target: T1, Meprin A subunit beta; assay: Inhibition of recombinant human meprin beta expressed in yeast using Abz-YVAEAPK(Dnp)G-OH as substrate by fluorescence assay
Homo sapiens [3] = species: Homo sapiens; assay: Selectivity ratio of IC50 for recombinant human meprin alpha expressed in S2 insect cells to IC50 for recombinant human meprin beta expressed in yeast
Meprin A subunit alpha = biological target: T2, Meprin A subunit alpha (Homo sapiens, UniProt Q16819); assay: Inhibition of recombinant human meprin alpha expressed in S2 insect cells using Abz-YVADAPK(Dnp)G-OH as substrate by fluorescence assay
T2 sequence (Q16819 whole entry): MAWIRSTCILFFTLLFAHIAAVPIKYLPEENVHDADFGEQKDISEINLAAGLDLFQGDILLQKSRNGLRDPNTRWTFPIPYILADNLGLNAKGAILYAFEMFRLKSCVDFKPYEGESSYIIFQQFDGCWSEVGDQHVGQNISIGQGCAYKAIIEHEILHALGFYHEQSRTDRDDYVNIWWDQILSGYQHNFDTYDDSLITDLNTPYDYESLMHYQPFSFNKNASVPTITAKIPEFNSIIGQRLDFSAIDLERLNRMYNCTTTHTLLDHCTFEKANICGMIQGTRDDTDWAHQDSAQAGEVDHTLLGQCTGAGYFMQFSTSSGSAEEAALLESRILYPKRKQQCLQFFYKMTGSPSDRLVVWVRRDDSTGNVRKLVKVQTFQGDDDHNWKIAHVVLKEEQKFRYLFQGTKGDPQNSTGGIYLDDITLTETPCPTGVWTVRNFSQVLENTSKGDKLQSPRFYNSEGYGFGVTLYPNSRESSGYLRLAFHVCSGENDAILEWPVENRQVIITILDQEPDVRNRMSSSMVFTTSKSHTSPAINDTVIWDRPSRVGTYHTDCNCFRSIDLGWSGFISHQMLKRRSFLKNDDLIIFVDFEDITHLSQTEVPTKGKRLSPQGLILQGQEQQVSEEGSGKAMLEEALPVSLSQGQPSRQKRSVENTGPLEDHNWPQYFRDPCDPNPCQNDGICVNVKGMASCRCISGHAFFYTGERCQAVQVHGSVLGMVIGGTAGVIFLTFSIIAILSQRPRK

[4] = biological target: T3, Disintegrin and metalloproteinase domain-containing protein 17 (Homo sapiens, UniProt P78536); assay: Inhibition of recombinant human C-terminal His6-tagged ADAM17 expressed in baculovirus infected Sf21 cells using Abz-LANAVRSSSR-(DapDnp)-NH2 as substrate by fluorescence assay
[5] = biological target: T4, Disintegrin and metalloproteinase domain-containing protein 10 (Homo sapiens, UniProt O14672); assay: Inhibition of recombinant human C-terminal His10-tagged ADAM10 expressed in baculovirus infected Sf21 cells using Abz-LANAVRSSSR-(DapDnp)-NH2 as substrate by fluorescence assay
T4 sequence (O14672 whole entry): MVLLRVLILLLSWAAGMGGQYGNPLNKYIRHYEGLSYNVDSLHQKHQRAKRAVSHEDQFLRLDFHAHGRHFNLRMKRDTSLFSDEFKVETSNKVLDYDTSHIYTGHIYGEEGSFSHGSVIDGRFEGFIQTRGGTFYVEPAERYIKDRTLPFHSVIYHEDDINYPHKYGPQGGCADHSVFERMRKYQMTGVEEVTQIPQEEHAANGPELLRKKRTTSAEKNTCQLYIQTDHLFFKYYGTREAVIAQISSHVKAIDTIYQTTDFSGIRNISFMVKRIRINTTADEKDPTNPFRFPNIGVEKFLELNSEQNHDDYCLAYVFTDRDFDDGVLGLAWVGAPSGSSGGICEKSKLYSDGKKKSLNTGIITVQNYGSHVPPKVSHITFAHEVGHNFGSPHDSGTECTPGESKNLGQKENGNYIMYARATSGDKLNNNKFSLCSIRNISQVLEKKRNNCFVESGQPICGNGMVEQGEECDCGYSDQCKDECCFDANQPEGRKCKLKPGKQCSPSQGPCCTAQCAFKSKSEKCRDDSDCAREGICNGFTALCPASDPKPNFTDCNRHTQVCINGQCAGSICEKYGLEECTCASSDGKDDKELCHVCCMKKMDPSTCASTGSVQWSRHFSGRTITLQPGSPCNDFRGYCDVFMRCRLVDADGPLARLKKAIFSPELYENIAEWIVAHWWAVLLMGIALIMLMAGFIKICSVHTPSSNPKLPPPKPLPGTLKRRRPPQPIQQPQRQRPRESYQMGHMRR

Collagenase 3 [6] = biological target: T5, Collagenase 3 (Homo sapiens, UniProt P45452); assay: Inhibition of APMA-activated recombinant human MMP13 expressed in mouse NS0 cells using Mca-PLGL-(DapDnp)-AR-NH2 as substrate by fluorescence assay
Homo sapiens [7] = species: Homo sapiens; assay: Selectivity ratio of IC50 for recombinant human C-terminal His10-tagged ADAM10 expressed in baculovirus infected Sf21 cells to IC50 for recombinant human meprin beta expressed in yeast
[8] = biological target: T6, 72 kDa type IV collagenase (Homo sapiens, UniProt P08253); assay: Inhibition of APMA-activated recombinant human MMP2 expressed in CHO cells using Mca-PLGL-(DapDnp)-AR-NH2 as substrate by fluorescence assay
[9] = biological target: T7, Matrix metalloproteinase-9 (Homo sapiens, UniProt P14780); assay: Inhibition of APMA-activated recombinant human MMP9 expressed in CHO cells using Mca-PLGL-(DapDnp)-AR-NH2 as substrate by fluorescence assay
[10] = biological target: T3, Disintegrin and metalloproteinase domain-containing protein 17; assay: Inhibition of recombinant human C-terminal His6-tagged ADAM17 expressed in baculovirus infected Sf21 cells at 200 uM using Abz-LANAVRSSSR-(DapDnp)-NH2 as substrate by fluorescence assay
Homo sapiens [11] = species: Homo sapiens; assay: Selectivity ratio of IC50 APMA-activated recombinant human MMP2 expressed in CHO cells to IC50 for recombinant human meprin beta expressed in yeast; format: cell-based
Collagenase 3 [12] = biological target: T5, Collagenase 3; assay: Inhibition of APMA-activated recombinant human MMP13 expressed in mouse NS0 cells at 200 uM using Mca-PLGL-(DapDnp)-AR-NH2 as substrate by fluorescence assay
[13] = biological target: T7, Matrix metalloproteinase-9; assay: Inhibition of APMA-activated recombinant human MMP9 expressed in CHO cells at 200 uM using Mca-PLGL-(DapDnp)-AR-NH2 as substrate by fluorescence assay
[14] = biological target: T4, Disintegrin and metalloproteinase domain-containing protein 10; assay: Inhibition of recombinant human C-terminal His10-tagged ADAM10 expressed in baculovirus infected Sf21 cells at 200 uM using Abz-LANAVRSSSR-(DapDnp)-NH2 as substrate by fluorescence assay
[15] = biological target: T6, 72 kDa type IV collagenase; assay: Inhibition of APMA-activated recombinant human MMP2 expressed in CHO cells at 200 uM using Mca-PLGL-(DapDnp)-AR-NH2 as substrate by fluorescence assay
Meprin A subunit beta [16] = biological target: T1, Meprin A subunit beta; assay: Inhibition of human meprin beta expressed in baculovirus infected BTI-TN-5B1-4 insect cells using N-benzoyl-L-tyrosylp-aminobenzoic acid as substrate

T6 sequence (P08253 whole entry): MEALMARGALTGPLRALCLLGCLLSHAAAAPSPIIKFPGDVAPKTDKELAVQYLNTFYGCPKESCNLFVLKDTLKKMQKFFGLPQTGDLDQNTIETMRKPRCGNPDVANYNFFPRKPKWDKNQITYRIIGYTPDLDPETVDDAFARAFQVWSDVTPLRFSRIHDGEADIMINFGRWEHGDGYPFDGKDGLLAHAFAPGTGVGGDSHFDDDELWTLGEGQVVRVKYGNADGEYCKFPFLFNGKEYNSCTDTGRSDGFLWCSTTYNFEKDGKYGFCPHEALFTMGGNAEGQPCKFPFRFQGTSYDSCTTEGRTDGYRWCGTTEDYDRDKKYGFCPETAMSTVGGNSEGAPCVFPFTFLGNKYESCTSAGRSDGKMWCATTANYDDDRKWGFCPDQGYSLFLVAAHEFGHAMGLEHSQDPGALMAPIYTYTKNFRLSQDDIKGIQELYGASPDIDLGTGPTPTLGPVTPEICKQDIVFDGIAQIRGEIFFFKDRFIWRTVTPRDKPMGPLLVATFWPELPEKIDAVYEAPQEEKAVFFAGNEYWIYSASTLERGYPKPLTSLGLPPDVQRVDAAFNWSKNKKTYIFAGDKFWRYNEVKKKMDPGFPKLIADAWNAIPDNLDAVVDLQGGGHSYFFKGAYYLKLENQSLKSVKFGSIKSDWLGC
T7 sequence (P14780 whole entry, the tested form may be a part): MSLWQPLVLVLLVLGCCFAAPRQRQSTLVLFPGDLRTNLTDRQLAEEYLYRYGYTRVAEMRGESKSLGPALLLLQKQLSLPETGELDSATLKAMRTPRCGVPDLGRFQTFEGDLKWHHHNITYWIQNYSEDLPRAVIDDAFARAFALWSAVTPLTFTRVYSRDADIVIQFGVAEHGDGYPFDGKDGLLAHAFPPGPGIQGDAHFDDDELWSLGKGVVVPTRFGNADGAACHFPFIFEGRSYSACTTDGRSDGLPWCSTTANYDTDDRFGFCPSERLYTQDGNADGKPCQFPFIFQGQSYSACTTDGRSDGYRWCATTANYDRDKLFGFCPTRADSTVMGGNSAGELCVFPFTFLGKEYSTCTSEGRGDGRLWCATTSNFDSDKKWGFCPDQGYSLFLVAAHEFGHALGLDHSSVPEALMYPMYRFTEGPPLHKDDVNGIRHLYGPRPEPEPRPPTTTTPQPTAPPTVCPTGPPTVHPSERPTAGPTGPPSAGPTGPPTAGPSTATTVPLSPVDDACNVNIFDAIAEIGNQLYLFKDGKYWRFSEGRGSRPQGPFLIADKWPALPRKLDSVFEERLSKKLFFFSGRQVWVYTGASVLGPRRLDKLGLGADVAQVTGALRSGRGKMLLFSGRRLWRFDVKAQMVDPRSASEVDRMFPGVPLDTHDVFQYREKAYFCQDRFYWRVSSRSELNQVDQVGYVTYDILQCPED
T3 sequence (P78536 whole entry, the tested form may be a part): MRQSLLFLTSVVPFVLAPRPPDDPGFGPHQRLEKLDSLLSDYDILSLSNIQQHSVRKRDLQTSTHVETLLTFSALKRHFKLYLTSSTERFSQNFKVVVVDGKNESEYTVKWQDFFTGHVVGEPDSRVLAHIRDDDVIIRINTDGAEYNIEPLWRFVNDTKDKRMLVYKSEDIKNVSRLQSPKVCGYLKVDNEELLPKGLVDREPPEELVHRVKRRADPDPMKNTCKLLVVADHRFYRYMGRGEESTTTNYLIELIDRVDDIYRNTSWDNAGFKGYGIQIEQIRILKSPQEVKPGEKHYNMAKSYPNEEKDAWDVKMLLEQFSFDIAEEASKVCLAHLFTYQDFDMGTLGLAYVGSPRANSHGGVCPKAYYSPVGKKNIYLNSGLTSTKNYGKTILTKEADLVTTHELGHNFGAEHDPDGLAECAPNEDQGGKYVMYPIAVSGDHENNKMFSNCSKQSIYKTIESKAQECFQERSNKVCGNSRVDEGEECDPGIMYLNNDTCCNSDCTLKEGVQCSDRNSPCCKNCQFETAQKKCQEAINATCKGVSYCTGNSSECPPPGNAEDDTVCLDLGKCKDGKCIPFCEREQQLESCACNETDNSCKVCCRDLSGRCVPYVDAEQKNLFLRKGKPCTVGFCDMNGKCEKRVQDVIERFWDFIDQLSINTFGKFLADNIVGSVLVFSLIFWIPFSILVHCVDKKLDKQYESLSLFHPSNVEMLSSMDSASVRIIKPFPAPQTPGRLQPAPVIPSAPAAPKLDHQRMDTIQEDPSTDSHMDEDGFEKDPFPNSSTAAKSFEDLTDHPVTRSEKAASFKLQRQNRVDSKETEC

Ki (Meprin A subunit beta [1]): 22 nM
SMILES: O=C(Nc1cc(C(=O)Nc2ccc(S(=O)(=O)O)cc2S(=O)(=O)O)cc(C(=O)Nc2ccc(S(=O)(=O)O)cc2S(=O)(=O)O)c1)Nc1cc(C(=O)Nc2ccc(S(=O)(=O)O)cc2S(=O)(=O)O)cc(C(=O)Nc2ccc(S(=O)(=O)O)cc2S(=O)(=O)O)c1

IC50 (Meprin A subunit beta [2]): 980 nM
SMILES: COc1ccc(S(=O)(=O)N(CC(=O)NO)Cc2ccc(C(=O)O)cc2)cc1

IC50 (Meprin A subunit beta [2]): 340 nM
SMILES: O=C(CCNS(=O)(=O)c1ccc(C(=O)O)cc1)NO

IC50 (Meprin A subunit beta [2]): 320 nM
SMILES: O=C(CN(Cc1cccc(C(=O)O)c1)S(=O)(=O)c1ccc(C(=O)O)cc1)NO

IC50 (Meprin A subunit alpha): 3290 nM | IC50 [4]: 1240 nM | IC50 [5]: 11700 nM | IC50 (Collagenase 3 [6]): 0.3 nM | IC50 [8]: 2 nM | IC50 [9]: 50 nM
SMILES: COc1ccc(S(=O)(=O)N(CC(=O)NO)Cc2cccc(C(=O)O)c2)cc1
Ratio IC50 (Homo sapiens [3]): 60 | Ratio IC50 (Homo sapiens [7]): > 100

inhibition (INH) [10]: Not Active | IC50 (Meprin A subunit alpha): 27400 nM | inhibition (INH) (Collagenase 3 [12]): Not Active | inhibition (INH) [13]: Not Active | inhibition (INH) [14]: Not Active | inhibition (INH) [15]: Not Active
SMILES: O=C(CN(Cc1cccc(C(=O)O)c1)S(=O)(=O)c1cccc(C(=O)O)c1)NO
Ratio IC50 (Homo sapiens [3]): 500 | Ratio IC50 (Homo sapiens [11]): > 100 | Ratio IC50 (Homo sapiens [7]): > 100

Ki (Meprin A subunit beta [16]): 2000 nM
SMILES: CCCCC[C@H](CC(=O)NO)C(=O)N[C@H](C(=O)N1CCC[C@H]1CO)C(C)C [ACTINONIN]

IC50 (Meprin A subunit beta [2]): 310 nM
SMILES: O=C(CNS(=O)(=O)c1cccc(C(=O)O)c1)NO

IC50 (Meprin A subunit beta [2]): 32500 nM
SMILES: COc1ccc(S(=O)(=O)N(C)CC(=O)NO)cc1

IC50 (Meprin A subunit beta [2]): 220 nM
SMILES: O=C(CCNS(=O)(=O)c1cccc(C(=O)O)c1)NO

IC50 (Meprin A subunit beta [2]): 5030 nM
SMILES: O=C(O)Cc1ccc(S(=O)(=O)NCC(=O)NO)cc1

IC50 (Meprin A subunit beta [2]): 430 nM
SMILES: O=C(CNS(=O)(=O)c1cc(Cl)c(O)c(Cl)c1)NO

IC50 (Meprin A subunit beta [2]): 42900 nM
SMILES: COc1ccc(S(=O)(=O)N(CCc2ccccc2)CC(=O)NO)cc1

IC50 (Meprin A subunit beta [2]): 400 nM
SMILES: O=C(CCNS(=O)(=O)c1cc(Cl)c(O)c(Cl)c1)NO

IC50 (Meprin A subunit beta [2]): 17200 nM
SMILES: O=C(CNS(=O)(=O)c1ccc(Cl)cc1)NO
